Columns and labels:
[1] = system: Amaranthus; assay: Pre-emergence Test/Greenhouse; type: in vivo; conditions: 504 h, after three weeks, 0%=no effect, 100%=total destruction, read-out: degree of damage, Amaranthus; for pest or weed control at 125 g/ha: 125 g of ai./ha; for pest or weed control at 60 g/ha: 60 g of ai./ha
Description: (§1) Solvent: 5 parts by weight of acetone
(§2) Emulsifier: 1 part by weight of alkylaryl polyglycol ether
(§3) To produce a suitable preparation of active compound, 1 part by weight of active compound is mixed with the stated amount of solvent, the stated amount of emulsifier is added and the concentrate is diluted with water to the desired concentration.
(§4) Seeds of the test plants are sown in normal soil. After about 24 hours, the soil is sprayed with the preparation of active compound in such a way as to apply the particular amounts of active compound desired per unit area. The concentration of the spray liquor is chosen so that the particular amounts of active compound desired are applied in 1000 l of water/ha.
(§5) After three weeks, the degree of damage to the plants is rated in % damage in comparison with the development of the untreated control.
(§6) 0%=no effect (like untreated control)

[2] = system: Barley; assay: Pre-emergence Test/Greenhouse; type: in vivo; conditions: 4 g of ai./ha, after three weeks, 0%=no effect, 100%=total destruction
Description: as §1, §2, §3, §4, §5, §6

[3] = system: Veronica; assay: Pre-emergence Test/Greenhouse; type: in vivo; conditions: 4 g of ai./ha, after three weeks, 0%=no effect, 100%=total destruction
Description: as §1, §2, §3, §4, §5, §6

[4] = system: Wheat; assay: Pre-emergence Test/Greenhouse; type: in vivo; conditions: after three weeks, 0%=no effect, 100%=total destruction
Description: as §1, §2, §3, §4, §5, §6

[5] = system: Matricaria; assay: Pre-emergence Test/Greenhouse; type: in vivo; conditions: after three weeks, 0%=no effect, 100%=total destruction
Description: as §1, §2, §3, §4, §5, §6

[6] = system: Lolium; assay: Pre-emergence Test/Greenhouse; type: in vivo; conditions: after three weeks, 0%=no effect, 100%=total destruction
Description: as §1, §2, §3, §4, §5, §6

[7] = system: Chenopodium; assay: Pre-emergence Test/Greenhouse; type: in vivo; conditions: after three weeks, 0%=no effect, 100%=total destruction
Description: as §1, §2, §3, §4, §5, §6

[8] = system: Alopecurus; assay: Pre-emergence Test/Greenhouse; type: in vivo; conditions: 4 g of ai./ha, after three weeks, 0%=no effect, 100%=total destruction
Description: as §1, §2, §3, §4, §5, §6

[9] = system: Abutilon; assay: Post-emergence Test/Greenhouse; type: in vivo; conditions: 60 g of ai./ha, after three weeks, 0%=no effect, 100%=total destruction
Description: as §1, §2, §3
as §4, with “Test plants which have a height” for “Seeds”, “5-15 cm” for “the test plants”, “are” for “are sown in normal soil. After about 24 hours, the soil is”
(§7) After three weeks, the degree of damage to the plants is rated in % damage in comparison to the development of the untreated control.
as §6

[10] = system: Amaranthus; assay: Post-emergence Test/Greenhouse; type: in vivo; conditions: 504 h, after three weeks, 0%=no effect, 100%=total destruction, read-out: degree of damage, Amaranthus; for pest or weed control at 60 g/ha: 60 g of ai./ha
Description: as §1, §2, §3
as §4, with “Test plants which have a height” for “Seeds”, “5-15 cm” for “the test plants”, “are” for “are sown in normal soil. After about 24 hours, the soil is”
as §7, §6

[11] = system: Matricaria; assay: Post-emergence Test/Greenhouse; type: in vivo; conditions: 60 g of ai./ha, after three weeks, 0%=no effect, 100%=total destruction
Description: as §1, §2, §3
as §4, with “Test plants which have a height” for “Seeds”, “5-15 cm” for “the test plants”, “are” for “are sown in normal soil. After about 24 hours, the soil is”
as §7, §6

[12] = system: Chenopodium; assay: Post-emergence Test/Greenhouse; type: in vivo; conditions: 60 g of ai./ha, after three weeks, 0%=no effect, 100%=total destruction
Description: as §1, §2, §3
as §4, with “Test plants which have a height” for “Seeds”, “5-15 cm” for “the test plants”, “are” for “are sown in normal soil. After about 24 hours, the soil is”
as §7, §6

[13] = system: Xanthium; assay: Post-emergence Test/Greenhouse; type: in vivo; conditions: 60 g of ai./ha, after three weeks, 0%=no effect, 100%=total destruction
Description: as §1, §2, §3
as §4, with “Test plants which have a height” for “Seeds”, “5-15 cm” for “the test plants”, “are” for “are sown in normal soil. After about 24 hours, the soil is”
as §7, §6

[14] = system: weeds; assay: Pre-emergence Test; type: in vivo; conditions: in words
Description: as §1, §2, §3, §4, §5, §6

[15] = system: weeds; assay: Post-emergence Test; type: in vivo; conditions: in words
Description: as §1, §2, §3
as §4, with “Test plants which have a height” for “Seeds”, “5-15 cm” for “the test plants”, “are” for “are sown in normal soil. After about 24 hours, the soil is”
as §7, §6

[16] = system: Galium; assay: Pre-emergence Test/Greenhouse; type: in vivo; conditions: after three weeks, 0%=no effect, 100%=total destruction
Description: as §1, §2, §3, §4, §5, §6

[17] = system: Avena fatua; assay: Pre-emergence Test/Greenhouse; type: in vivo; conditions: 125 g of ai./ha, after three weeks, 0%=no effect, 100%=total destruction
Description: as §1, §2, §3, §4, §5, §6

[18] = system: Sinapis; assay: Pre-emergence Test/Greenhouse; type: in vivo; conditions: after three weeks, 0%=no effect, 100%=total destruction
Description: as §1, §2, §3, §4, §5, §6

[19] = system: Alopecurus; assay: Post-emergence Test/Greenhouse; type: in vivo; conditions: after three weeks, 0%=no effect, 100%=total destruction
Description: as §1, §2, §3
as §4, with “Test plants which have a height” for “Seeds”, “5-15 cm” for “the test plants”, “are” for “are sown in normal soil. After about 24 hours, the soil is”
as §7, §6

[20] = system: Sinapis; assay: Post-emergence Test/Greenhouse; type: in vivo; conditions: after three weeks, 0%=no effect, 100%=total destruction
Description: as §1, §2, §3
as §4, with “Test plants which have a height” for “Seeds”, “5-15 cm” for “the test plants”, “are” for “are sown in normal soil. After about 24 hours, the soil is”
as §7, §6

[21] = system: Echinochloa; assay: Pre-emergence Test/Greenhouse; type: in vivo; conditions: 60 g of ai./ha, after three weeks, 0%=no effect, 100%=total destruction
Description: as §1, §2, §3, §4, §5, §6

[22] = system: Abutilon; assay: Pre-emergence Test/Greenhouse; type: in vivo; conditions: 60 g of ai./ha, after three weeks, 0%=no effect, 100%=total destruction
Description: as §1, §2, §3, §4, §5, §6

[23] = system: Setaria; assay: Pre-emergence Test/Greenhouse; type: in vivo; conditions: 60 g of ai./ha, after three weeks, 0%=no effect, 100%=total destruction
Description: as §1, §2, §3, §4, §5, §6

[24] = system: Cyperus; assay: Pre-emergence Test/Greenhouse; type: in vivo; conditions: 60 g of ai./ha, after three weeks, 0%=no effect, 100%=total destruction
Description: as §1, §2, §3, §4, §5, §6

[25] = system: Setaria; assay: Post-emergence Test/Greenhouse; type: in vivo; conditions: 60 g of ai./ha, after three weeks, 0%=no effect, 100%=total destruction
Description: as §1, §2, §3
as §4, with “Test plants which have a height” for “Seeds”, “5-15 cm” for “the test plants”, “are” for “are sown in normal soil. After about 24 hours, the soil is”
as §7, §6

Row | SMILES | degree of damage, Abutilon [9] | pest or weed control at 60 g/ha [10] | activity against weeds [14] | melting point | activity against weeds [15] | pest or weed control at 60 g/ha [1] | degree of damage, Sinapis ([18]; 60 g of ai./ha) | degree of damage, Sinapis ([20]; 60 g of ai./ha) | other results
1 | COc1nc(C)nc(NC(=O)NS(=O)(=O)c2c(C)csc2C)n1 [Example 1, N-(4-methoxy-6-methyl-1,3,5-triazin-2-yl)-N′-(2,4-dimethyl-thien-3-yl-sulplhonyl)-urea] | 95% | 95% | very strong activity | 189 °C | strong activity |  |  |  | pest or weed control at 4 g/ha ([1]; 4 g of ai./ha): 100%; degree of damage, Barley [2]: 0%; degree of damage, Veronica [3]: 100%; degree of damage, Wheat ([4]; 4 g of ai./ha): 0%; degree of damage, Matricaria ([5]; 4 g of ai./ha): 100%; degree of damage, Lolium ([6]; 4 g of ai./ha): 100%; degree of damage, Chenopodium ([7]; 4 g of ai./ha): 100%; degree of damage, Alopecurus [8]: 100%; degree of damage, Matricaria [11]: 95%; degree of damage, Chenopodium [12]: 100%; degree of damage, Xanthium [13]: 100%
2 | Cc1csc(C)c1S(=O)(=O)NC(=O)Nc1nc(OCC(F)(F)F)nc(N(C)C)n1 [Example 6] |  |  | very strong activity | 195 °C | strong activity |  |  |  | pest or weed control at 125 g/ha [1]: 90%; degree of damage, Galium ([16]; 125 g of ai./ha): 100%; degree of damage, Avena fatua [17]: 80%; degree of damage, Sinapis ([18]; 125 g of ai./ha): 90%; pest or weed control at 125 g/ha ([10]; 125 g of ai./ha): 80%; degree of damage, Alopecurus ([19]; 125 g of ai./ha): 100%; degree of damage, Sinapis ([20]; 125 g of ai./ha): 100%
3 | COc1cc(OC)nc(NC(=O)NS(=O)(=O)c2c(C)csc2C)n1 [Example 7] | 95% | 95% | very strong activity | 198 °C | strong activity |  |  |  | degree of damage, Echinochloa [21]: 95%; degree of damage, Wheat ([4]; 60 g of ai./ha): 10%; degree of damage, Matricaria ([5]; 60 g of ai./ha): 95%; degree of damage, Lolium ([6]; 60 g of ai./ha): 95%; degree of damage, Chenopodium ([7]; 60 g of ai./ha): 90%; degree of damage, Matricaria [11]: 95%; degree of damage, Chenopodium [12]: 95%; degree of damage, Xanthium [13]: 95%
4 | Cc1csc(C)c1S(=O)(=O)NC(=O)Nc1nc(Oc2ccccc2)nc(N(C)C)n1 [Example 8] |  |  | very strong activity | 173 °C |  |  |  |  | pest or weed control at 125 g/ha [1]: 80%; degree of damage, Galium ([16]; 125 g of ai./ha): 90%; degree of damage, Avena fatua [17]: 80%; degree of damage, Sinapis ([18]; 125 g of ai./ha): 80%
5 | COc1nc(NC(=O)NS(=O)(=O)c2c(C)csc2C)nc(OC)n1 [Example 9] | 80% | 100% | very strong activity | 168 °C | strong activity | 90% | 90% | 95% | degree of damage, Abutilon [22]: 90%
6 | COc1nc(NC(=O)NS(=O)(=O)c2c(C)csc2C)nc(C2CC2)n1 [Example 10] |  |  | very strong activity | 180 °C |  | 80% |  |  | degree of damage, Galium ([16]; 60 g of ai./ha): 100%; degree of damage, Setaria [23]: 80%
7 | CSc1nc(C)nc(NC(=O)NS(=O)(=O)c2c(C)csc2C)n1 [Example 11] |  | 100% |  | 220 °C | strong activity |  |  | 100% | 
8 | CCc1nc(NC(=O)NS(=O)(=O)c2c(C)csc2C)nc(OC)n1 [Example 13] | 90% | 100% |  | 161 °C | strong activity |  |  | 95% | 
9 | Cc1cc(C)nc(NC(=O)NS(=O)(=O)c2c(C)csc2C)n1 [Example 14] |  | 100% | very strong activity | 240 °C | strong activity | 90% | 90% | 100% | degree of damage, Cyperus [24]: 100%; degree of damage, Alopecurus ([19]; 60 g of ai./ha): 80%
10 | COc1cc(C)nc(NC(=O)NS(=O)(=O)c2c(C)csc2C)n1 [Example 15] | 90% | 100% | very strong activity | 140 °C | strong activity | 90% | 100% | 100% | degree of damage, Abutilon [22]: 100%; degree of damage, Setaria [25]: 90%
11 | COc1cc(Cl)nc(NC(=O)NS(=O)(=O)c2c(C)csc2C)n1 [Example 16] |  | 100% | very strong activity | 219 °C | strong activity | 95% | 95% | 95% | degree of damage, Cyperus [24]: 80%
